This is an account of results in patent publication US8530516B2, “Promoting cycling of ApoE4 isoform” (Board of Regents, The University of Texas System, priority 2009, dated 2013).

One assay deals with T1, NHE-2 isoform (Homo sapiens, UniProt Q9UBY0).
T1 sequence (Q9UBY0 1-812): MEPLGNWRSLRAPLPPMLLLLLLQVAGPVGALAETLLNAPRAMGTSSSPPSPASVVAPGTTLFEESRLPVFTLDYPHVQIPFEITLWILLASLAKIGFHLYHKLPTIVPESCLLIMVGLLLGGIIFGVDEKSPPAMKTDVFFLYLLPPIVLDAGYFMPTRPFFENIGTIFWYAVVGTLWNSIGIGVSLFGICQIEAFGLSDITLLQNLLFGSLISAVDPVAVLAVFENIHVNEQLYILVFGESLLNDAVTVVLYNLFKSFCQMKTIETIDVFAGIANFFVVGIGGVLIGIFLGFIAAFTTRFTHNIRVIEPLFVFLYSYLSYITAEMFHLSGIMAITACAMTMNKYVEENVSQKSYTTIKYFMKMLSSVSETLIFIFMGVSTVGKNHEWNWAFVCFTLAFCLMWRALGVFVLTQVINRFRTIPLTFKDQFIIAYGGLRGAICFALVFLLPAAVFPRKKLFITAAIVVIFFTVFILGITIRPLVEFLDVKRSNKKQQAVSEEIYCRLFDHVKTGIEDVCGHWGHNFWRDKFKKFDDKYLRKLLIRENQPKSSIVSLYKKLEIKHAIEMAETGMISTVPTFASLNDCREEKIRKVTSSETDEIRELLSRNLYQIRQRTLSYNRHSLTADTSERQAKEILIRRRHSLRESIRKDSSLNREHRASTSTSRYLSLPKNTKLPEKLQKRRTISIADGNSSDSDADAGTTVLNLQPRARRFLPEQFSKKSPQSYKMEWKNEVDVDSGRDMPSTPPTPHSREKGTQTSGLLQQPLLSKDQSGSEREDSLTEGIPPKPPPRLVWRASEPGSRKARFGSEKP
As to conditions: cited from earlier work.

The target in the next assay is T2, NHE5 (Homo sapiens, UniProt Q14940).
T2 sequence (Q14940 1-896): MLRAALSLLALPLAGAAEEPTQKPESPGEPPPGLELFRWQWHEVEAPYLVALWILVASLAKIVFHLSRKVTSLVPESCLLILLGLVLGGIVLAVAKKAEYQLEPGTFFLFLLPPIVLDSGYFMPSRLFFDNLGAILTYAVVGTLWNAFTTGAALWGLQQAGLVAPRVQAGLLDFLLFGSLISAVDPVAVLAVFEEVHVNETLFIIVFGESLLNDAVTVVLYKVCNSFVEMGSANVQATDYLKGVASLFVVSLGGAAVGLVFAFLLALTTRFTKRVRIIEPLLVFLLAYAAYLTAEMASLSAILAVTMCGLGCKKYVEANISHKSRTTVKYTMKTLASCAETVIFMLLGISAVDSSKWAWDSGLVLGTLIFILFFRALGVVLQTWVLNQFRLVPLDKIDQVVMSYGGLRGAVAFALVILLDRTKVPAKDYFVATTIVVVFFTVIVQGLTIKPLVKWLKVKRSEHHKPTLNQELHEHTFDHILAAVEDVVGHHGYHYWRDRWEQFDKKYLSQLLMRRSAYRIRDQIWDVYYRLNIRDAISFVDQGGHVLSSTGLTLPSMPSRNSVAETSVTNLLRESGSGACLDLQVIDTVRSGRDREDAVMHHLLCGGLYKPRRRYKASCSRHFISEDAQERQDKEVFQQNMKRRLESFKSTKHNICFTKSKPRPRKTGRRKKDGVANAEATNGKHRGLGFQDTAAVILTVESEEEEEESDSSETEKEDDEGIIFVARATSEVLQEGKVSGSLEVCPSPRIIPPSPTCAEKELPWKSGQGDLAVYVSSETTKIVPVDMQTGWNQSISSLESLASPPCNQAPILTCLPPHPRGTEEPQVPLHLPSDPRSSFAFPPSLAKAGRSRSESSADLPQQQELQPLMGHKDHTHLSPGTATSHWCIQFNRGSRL
The note with it: cited from earlier work.

For another assay, the target named is NHE-3 (Homo sapiens, UniProt P48764). The note with it: cited from earlier work.
In another assay the test system is ApoE receptors (Apoer2). Kind of assay: recycling of ApoE receptors in the presence of ApoE4 / ApoE3. The assay is classed as cell-based.

SMILES strings stand for the structures.

NHE-3, sequence (P48764 26-834, species assumed): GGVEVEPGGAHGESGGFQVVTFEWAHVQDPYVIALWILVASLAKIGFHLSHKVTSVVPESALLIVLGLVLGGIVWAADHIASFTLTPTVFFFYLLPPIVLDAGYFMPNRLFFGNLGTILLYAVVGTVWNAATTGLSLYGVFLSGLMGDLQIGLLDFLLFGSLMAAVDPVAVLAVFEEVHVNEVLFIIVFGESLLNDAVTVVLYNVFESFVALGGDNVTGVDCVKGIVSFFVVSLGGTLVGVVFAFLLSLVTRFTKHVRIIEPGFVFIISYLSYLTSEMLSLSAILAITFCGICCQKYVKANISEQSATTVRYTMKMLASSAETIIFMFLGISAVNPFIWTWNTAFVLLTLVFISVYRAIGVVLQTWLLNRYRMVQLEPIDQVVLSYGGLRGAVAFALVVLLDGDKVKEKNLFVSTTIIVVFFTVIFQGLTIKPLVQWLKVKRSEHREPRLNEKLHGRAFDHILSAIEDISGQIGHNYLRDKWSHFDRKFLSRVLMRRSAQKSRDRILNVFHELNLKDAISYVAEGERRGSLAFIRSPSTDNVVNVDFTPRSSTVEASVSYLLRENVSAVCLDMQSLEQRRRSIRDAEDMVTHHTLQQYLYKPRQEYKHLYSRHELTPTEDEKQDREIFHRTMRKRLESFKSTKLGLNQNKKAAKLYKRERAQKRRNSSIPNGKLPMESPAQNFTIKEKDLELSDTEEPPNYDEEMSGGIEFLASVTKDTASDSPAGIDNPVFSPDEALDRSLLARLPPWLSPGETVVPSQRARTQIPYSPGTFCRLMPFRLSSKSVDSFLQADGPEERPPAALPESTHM

Turning to `CS(=O)(=O)O.CS(=O)(=O)c1cc(C(=O)N=C(N)N)ccc1N1CCCCC1` [HOE 694], the NHE-2 isoform selectivity result on NHE-2 isoform is “relatively selective”. For `CN1Cc2c(Cl)cc(Cl)cc2C(c2ccc(S(=O)(=O)N=C(N)N)cc2)C1` (stereo not shown) [N-diaminomethylene-4-(6,8-dichloro-2-methyl-1,2,3,4-tetrahydroisoquinolin-4-yl)benzenesulfonamide], the NHE5 selectivity result at NHE5 was “NHE5 selective”. Turning to `CC(=Cc1cc(C)ccc1C=C(C)C(=O)NC(=N)N)C(=O)N=C(C)C.Cl.Cl` [S3226, 3-[2-(3-guanidino-2-methyl-3-oxo-propenyl)-5-methyl-phenyl]-N-isopropylidene-2-methyl-acrylamide dihydro-chloride], the “NHE-3 potency and specificity” value at NHE-3 was “relatively potent and specific”. On to `COc1ccc2c3c([nH]c2c1)C(C)=NCC3` [hamaline], for which the NHE5 selectivity result at NHE5 is given as “NHE5 selective”.

Take `CC(C)NCC(O)c1ccc(O)c(O)c1` (stereo not shown) [isoproterenol]: the ApoE receptor recycling result in the assay on ApoE receptors (Apoer2) (activation of beta-adrenergic receptors, in the presence or absence of IBMX) is recorded as “restores normal ApoE receptor recycling”. Consider `COc1ccc(C2CNC(=O)C2)cc1OC1CCCC1` (stereo not shown) [rolipram], for which the “effect on altering the recycling properties of Apoer2” value with ApoE receptors (Apoer2) (in the presence of ApoE3) is given as “negligible effect”. The “recycling deficit induced by ApoE4” value in the assay with ApoE receptors (Apoer2) (in the presence of ApoE4) was “completely normalizes”.
